According to US20250002493A1, “PYRIDONE COMPOUND AND PREPARATION METHOD THEREFOR, PHARMACEUTICAL COMPOSITION AND USE” (NANJING CHINA-AUSTRALIA INSTITUTE OF TRANSLATIONAL MEDICINE …, priority 2022, published 2025):

Experiments:
[1] = biological target: BIR3 domain of human cIAP1 (residues 255-364) (Homo sapiens (Human), UniProt Q13490); assay: Fluorescence polarization competitive binding to cIAP1 BIR3; settings: FP, peptide probe 5 nM, cIAP1 BIR3 5 nM, 1 hour room temperature
Procedure: (§1) The binding affinity of the compounds provided by the present invention to IAP proteins was determined using a fluorescence polarization method (Nikolovska-Colesak et al, Anal. Biochem. 2004, 332:261-73). The recombinant BIR3 domains of human XIAP (residues 238-358), human cIAP1 (residues 255-364) and human cIAP2 (residues 236-342) fusing GST-tags were expressed in E. coli and purified using glutathione agarose 4B affinity chromatography and gel filtration chromatography. A 5-Fam fluorescently modified peptide probe (AbuRPFK(5-Fam)-NH2) was used to test the competitive binding ability of the compounds to the BIR3 domains of XIAP, cIAP1 and cIAP2. The peptide probe (5 nM), XIAP BIR3 (30 nM) or cIAP1 BIR3 (5 nM) or cIAP2 BIR3 (10 nM), and serial diluted compounds were mixed in a test buffer (100 mM potassium phosphate pH 7.5, 100 μg/ml bovine gamma globulin, 0.02% sodium azide, and 1 mM DTT). After incubating the samples at room temperature for 1 hour, the fluorescence polarization values were read using a Tecan microplate reader (FP excitation wavelength 485 nm, […] wavelength 530 nm). The IC50 value was obtained by fitting the curve using nonlinear least square regression with the Graphpad Prism software. The inhibition constant Ki, values were calculated using the Equation Ki, [I]50/([L]50/Kd+[P]0/Kd+1).

[2] = tested on: PANC1 human pancreatic cancer; assay: WST-8 cell proliferation assay, PANC1; assay type: cell-based; settings: PANC-1, 72 hours
Procedure: (§2) The effects of the compounds provided by the present invention on the proliferation of different cancer cell lines were tested using the WST-8 assay kit. This method is based on the reduction of WST-8 by dehydrogenase in live cells to form a highly water-soluble yellow Formazan dye. Cells were seeded in a 96-well plate and cultured with the test compounds at 37° C. under 5% CO2 for 72 hours. Afterwards, 10% (v/v) WST-8 was added, and the samples were incubated for an additional 2-3 hours. The absorbance of the samples was measured at 450 nm using a Tecan microplate reader, and the concentration of the compound that inhibited 50% of cell proliferation (IC50, nM) was calculated. The activity of the compounds provided by the present invention was determined in three cancer cell lines: MDA-MB-231 human breast cancer cells, SK-OV-3 human ovarian cancer cells, and PANC1 human pancreatic cancer.

MDA-MB-231 cancer cells = assay: Inhibitor-induced apoptosis, flow cytometry with Annexin V and propidium iodide; assay type: cell-based, human; settings: 3 hours
Procedure: After treating the cells with 10 nM and 100 nM concentrations of the compounds for 3 hours, the induction of apoptosis was analyzed using flow cytometry with Annexin V and propidium iodide staining.

[3] = biological target: BIR3 domain of human XIAP (residues 238-358) (Homo sapiens (Human), UniProt P98170); assay: Fluorescence polarization competitive binding to XIAP BIR3; settings: FP, peptide probe 5 nM, XIAP BIR3 30 nM, 1 hour room temperature
Chain of BIR3 domain of human XIAP (residues 238-358) (P98170 238-358): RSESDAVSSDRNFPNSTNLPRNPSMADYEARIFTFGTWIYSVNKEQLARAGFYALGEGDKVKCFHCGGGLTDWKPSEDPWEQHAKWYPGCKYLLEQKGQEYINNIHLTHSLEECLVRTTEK
Procedure: as §1

[4] = tested on: MDA-MB-231 human breast cancer cells; assay: WST-8 cell proliferation assay, MDA-MB-231; assay type: cell-based; settings: 72 hours
Procedure: as §2

[5] = biological target: BIR3 domain of human cIAP2 (residues 236-342) (Homo sapiens (Human), UniProt Q13489); assay: Fluorescence polarization competitive binding to cIAP2 BIR3; settings: FP, peptide probe 5 nM, cIAP2 BIR3 10 nM, 1 hour room temperature
Chain of BIR3 domain of human cIAP2 (residues 236-342) (Q13489 236-342): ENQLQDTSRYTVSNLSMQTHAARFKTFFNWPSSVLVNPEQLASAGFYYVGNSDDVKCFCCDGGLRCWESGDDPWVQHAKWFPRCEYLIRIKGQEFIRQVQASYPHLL
Procedure: as §1

[6] = tested on: SK-OV-3 human ovarian cancer cells; assay: WST-8 cell proliferation assay, SK-OV-3; assay type: cell-based; settings: 72 hours, read-out: SKOV-3 IC50
Procedure: as §2

Chain of BIR3 domain of human cIAP1 (residues 255-364) (Q13490 255-364): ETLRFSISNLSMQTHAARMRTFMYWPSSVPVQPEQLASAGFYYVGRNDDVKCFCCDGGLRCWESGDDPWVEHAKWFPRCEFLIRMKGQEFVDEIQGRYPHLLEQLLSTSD

Compound	Ki [1] [nM]	IC50 [2] [nM]	Ki [3] [nM]	IC50 [4] [nM]	Ki [5] [nM]	IC50 [6] [nM]	Proportion of apoptotic cells (MDA-MB-231 cancer cells; Drug concentration 10 nM) [%]	Proportion of apoptotic cells (MDA-MB-231 cancer cells; Drug concentration 100 nM) [%]
CN[C@@H](C)C(=O)N[C@H](C(=O)N1CCc2cc(=O)n(Cc3ccc(F)cc3)cc21)C(C)(C)C [Compound I-2-11]	0.7	38	31.4	5	1.7	4	35	48
[2H]C([2H])([2H])N[C@@H](C)C(=O)N[C@H](C(=O)N1CCc2cc(=O)n(Cc3ccc(F)cc3)cc21)C1CCCCC1 [Compound I-2-15]	1	64	76.9	9	4	12		
CN[C@@H](C)C(=O)N[C@H](C(=O)N1CCc2cc(=O)n(Cc3ccc(F)cc3F)cc21)C(C)(C)C [Compound I-2-20]	1	33	21.5	3	1.8	1	39	53
CN[C@@H](C)C(=O)N[C@H](C(=O)N1CC(C)(C)c2cc(=O)n(Cc3ccc(F)cc3F)cc21)C(C)(C)C [Compound I-2-26]	1.4	89	70.9	21	6.9	7	32	47
CN[C@@H](C)C(=O)N[C@H](C(=O)N1CC(C)(C)c2cc(=O)n(Cc3ccc(F)cc3F)cc21)C1CCCCC1 [Compound I-2-27]	1.9	96	208	18	5.7	19	31	46
[2H]C([2H])([2H])N[C@@H](C)C(=O)N[C@H](C(=O)N1CC(C)(C)c2cc(=O)n(Cc3ccc(F)cc3)cc21)C(C)(C)C [Compound I-2-29]	3	165	568	29	12.7	32	20	42
CN[C@@H](C)C(=O)N[C@H](C(=O)N1CC(C)(C)c2cc(=O)n(Cc3ccc(F)cc3)cc21)C(C)(C)C [Compound I-2-33]	1.9	192	288	24	7.9	27	23	45
C[C@H](N)C(=O)N[C@H](C(=O)N1CCc2cc(=O)n(Cc3ccc(F)cc3F)cc21)C(C)(C)C [Compound I-2-34]	1.1		24.1		1.5			
CN[C@@H](C)C(=O)N[C@H](C(=O)N1CCc2c1cc(Cc1ccc(F)cc1)c(=O)n2C)C(C)(C)C [Compound I-3-2]	1.2	43	18.4	2	2.2	2	38	52
CN[C@@H](C)C(=O)N[C@H](C(=O)N1CCc2c1cc(Cc1ccc(F)cc1F)c(=O)n2CC(F)(F)F)C(C)(C)C [Compound I-3-8]	1.3		7.1		2.1			
CN[C@@H](C)C(=O)N[C@H](C(=O)N1CCc2[nH]c(=O)c(Cc3ccc(F)cc3)cc21)C1CCCCC1 [Compound I-4-1, (S)-N-((S)-1-cyclohexyl-2-(6-(4-fluorobenzyl)-5-oxo-2,3,4,5-tetrahydro-1H-pyrrolo[3,2-b]pyridine-1-yl)-2-oxyethyl)-2-(methylamino)propanamide]	1.3	53	19.9	6	2.7	1	36	49
CN[C@@H](C)C(=O)N[C@H](C(=O)N1CCc2[nH]c(=O)c(Cc3ccc(F)cc3)cc21)C(C)(C)C [Compound I-4-3]	1		8.2		1.9			

The next lines start with results.

Ki [1] [nM]	IC50 [2] [nM]	Ki [3] [nM]	IC50 [4] [nM]	Ki [5] [nM]	IC50 [6] [nM]	Compound	Proportion of apoptotic cells (MDA-MB-231 cancer cells; Drug concentration 10 nM) [%]	Proportion of apoptotic cells (MDA-MB-231 cancer cells; Drug concentration 100 nM) [%]
1.3	75	73.2	8	3.2	13	CN[C@@H](C)C(=O)N[C@H](C(=O)N1CCc2cc(=O)n(Cc3ccc(F)cc3F)cc21)C1CCCCC1 [Compound I-2-4]	32	45
0.8	34	21	3	1.5	2	[2H]C([2H])([2H])N[C@@H](C)C(=O)N[C@H](C(=O)N1CCc2cc(=O)n(Cc3ccc(F)cc3F)cc21)C(C)(C)C [Compound I-2-22]	38	52
1	67	53.6	9	2.3	5	CN[C@@H](C)C(=O)N[C@H](C(=O)N1CCc2cc(=O)n(Cc3ccc(F)cc3O)cc21)C(C)(C)C [Compound I-2-23]	35	50
1.9	124	185	20	6.7	23	[2H]C([2H])([2H])N[C@@H](C)C(=O)N[C@H](C(=O)N1CC(C)(C)c2cc(=O)n(Cc3ccc(F)cc3F)cc21)C(C)(C)C [Compound I-2-28]	29	47
2.2	189	343	28	10	29	CN[C@@H](C)C(=O)N[C@H](C(=O)N1CC(C)(C)c2cc(=O)n(Cc3ccc(F)cc3O)cc21)C(C)(C)C [Compound I-2-32]	21	43
1.2		33.4		2.6		[2H]C([2H])([2H])N[C@@H](C)C(=O)N[C@H](C(=O)N1CCc2cc(=O)n(Cc3ccc(F)cc3F)cc21)C(C)(C)C [Compound I-2-35]		
1.2	58	30.7	5	2.6	4	CN[C@@H](C)C(=O)N[C@H](C(=O)N1CCc2c1cc(Cc1ccc(F)cc1)c(=O)n2C)C1CCCCC1 [Compound I-3-1, (S)-N-((S)-1-cyclohexyl-2-(6-(4-fluorobenzyl)-4-methyl-5-oxo-2,3,4,5-tetrahydro-1H-pyrrolo[3,2-b]pyridine-1-yl)-2-oxyethyl)-2-(methylamino)propanamide]	36	48
1.4	37	13.7	2	2.2	1	CN[C@@H](C)C(=O)N[C@H](C(=O)N1CCc2c1cc(Cc1ccc(F)cc1F)c(=O)n2C)C(C)(C)C [Compound I-3-3]	43	55
0.8		12.3		1.6		CCn1c2c(cc(Cc3ccc(F)cc3F)c1=O)N(C(=O)[C@@H](NC(=O)[C@H](C)NC)C(C)(C)C)CC2 [Compound I-3-6]		
1.6		45.2		5.2		CN[C@@H](C)C(=O)N[C@H](C(=O)N1CC(C)(C)c2c1cc(Cc1ccc(F)cc1F)c(=O)n2C)C(C)(C)C [Compound I-3-7]		
	241	25.2	33	5.8	40	CN[C@@H](C)C(=O)N[C@H]1CN(C(=O)CC(C)C)CC[C@H]2CC[C@@H](C(=O)NC(c3ccccc3)c3ccccc3)N2C1=O [SM-406, reference compound]	6	34
